Experimental data: US20080194417A1, “Method for Measuring and Comparing the Activity of Biologically Active Compounds” (priority 2005, published 2008)

How the values were obtained:
HepG2 cells [1] = assay: Cellular α-tocopherol concentrations in HepG2 cells (HPLC); format: cell-based; conditions: for Difference between the intracellular concentrations of RRR-α-T and all-rac-α-T: HepG2, 7 days; for Amount of free cellular vitamin E compared to control cells: HepG2, 7 days, 10, 30, 80 or 300 μM acetate in the media
Protocol: (§1) HepG2 cells (ATCC HB-8065) were cultured in 6 cm dishes in DMEM medium (GIBCO-Invitrogen, Switzerland) with 10% NU serum™ (Becton Dickinson, Switzerland) containing 1% Pen/Strep and undetectable amounts of vitamin E (detection limit 20 nM). Vitamin E compounds were applied as the acetate derivatives: RRR-α-tocopheryl acetate (Sigma and DSM Nutritional Products Ltd., Switzerland; 99-99.5 weight %, determined by gas chromatography) and all-rac-α-tocopheryl acetate (DSM Nutritional Products Ltd, Kaiseraugst, Switzerland; 98.0-99.5 weight %, determined by gas chromatography) were dissolved in 100% ethanol to prepare stock solutions. Treatment media were prepared by the addition of RRR-α-tocopheryl acetate (RRR-α-Tac) or all-rac-α-tocopheryl acetate (all-rac-α-Tac) to the basic medium at the following final concentrations: 0 (ethanol only, 1% final concentration), 10, 30, 80 and 300 μM. Treatment media were aliquoted and stored at −20° C. The vitamin E acetate treatment was performed for 7 days during the logarithmic growth phase of the cells. All treatment media were exchanged for fresh media every 24 hours. This treatment strategy has been chosen in the attempt to keep vitamin E acetate concentrations stable over time and to reach steady state intracellular vitamin E concentrations at 7 days of supplementation. All treatments were performed in quadruplicate dishes.
Adherent HepG2 cells were trypsinized, collected and washed three times with PBS containing 1% bovine serum albumin. Cells were saponified in a methanolic potassium hydroxide solution. The solution was diluted with 35% ethanol and extracted with hexane/toluene. α-Tocopheryl acetate and hydrolyzed α-tocopherols were quantified by isocratic HPLC analysis.

[2] = animal studies; cited from earlier work
HepG2 cells [3] = assay: Dose-dependent gene-transcriptional activity (Affymetrix GeneChip U133A) in HepG2 cells treated for 7 days; format: cell-based; conditions: for Difference in EC50 or IC50 values between RRR-α-T and all-rac-α-T / Number of genes dose-dependently regulated: HepG2; for EC50: HepG2, 104 induced genes, read-out: Transcriptional induction potency EC50, Mean ± SD; for EC50 / IC50: 7 days, 0-300 μM α-tocopheryl acetate in the media; for IC50: HepG2, 111 repressed genes, read-out: Transcriptional repression potency IC50, Mean ± SD; for Number of genes dose-dependently regulated: of the 14500 genes on the Affymetrix GeneChip U133A
Protocol: as §1
Cells were washed three times with PBS and lyzed with RTL buffer (Qiagen, Basel, Switzerland). Total RNA isolation was performed using RNeasy mini spin columns (Qiagen) and DNase digested on the columns (RNase-Free DNase Set, Qiagen) according to the manufacturer's description. cRNA preparation and Affymetrix GeneChip (U133A) hybridization were performed as described.
Data processing was carried out using the RACE-A analysis tool (Roche Bioinformatics, Basel, Switzerland) as described. Briefly, the arrays were normalized against the mean of the total sum of Average Difference (AvgDiff) values across all arrays used. Mean Average Difference values (MeanAvgDiff) were calculated as the means of one experiment performed in quadruplicate. Possible outliers were identified using the procedure of Nalimov with a 95% confidence interval. Subsequently, mean change factors (Chgf) for each individual gene were calculated among the different treatment groups and control using pair wise comparisons, and statistical significance was assessed by Student's t-test with prior testing for the normal distribution of the data. Applicant selected for those genes showing a dose-dependent regulation by vitamin E, i.e. maximal MeanAvgDiff>10 combined with a significant (p<0.05) differential Chgf between the vitamin E supplemented groups and the control group. The analysis of the experimental data obtained upon stimulation/treatment of the cells with RRR-α-Tac or all-rac-α-Tac was performed independently from each other.
EC50 and IC50 values, respectively, were determined by applying the standard four parameter model [y=a+(b−a)/(1+(x/c)̂d)] using the XL-Fit Software 3.0 (IDBS Inc. Emeryville, USA), where y is the normalized gene expression, x is the concentration of RRR-α-tocopherol or all-rac-α-tocopherol in the media and c corresponds to the EC50 and IC50 values, respectively. The potency-ratios were calculated as following: EC50RRR-α-T/EC50all-rac-α-T and IC50RRR-α-T/IC50all-rac-α-T.

Row | Difference between the intracellular concentrations of RRR-α-T and all-rac-α-T (HepG2 cells [1]) | Amount of free cellular vitamin E compared to control cells (HepG2 cells [1]) | Difference in EC50 or IC50 values between RRR-α-T and all-rac-α-T (HepG2 cells [3]) | EC50 (HepG2 cells [3]) [µM] | IC50 (HepG2 cells [3]) [µM] | Compound | Biological potency relative to all-rac-α-T (times) [2] | Potency ratio EC50RRR-α-T/EC50all-rac-α-T, Mean ± SD (HepG2 cells [3]; HepG2, 104 genes) | Potency ratio IC50RRR-α-T/IC50all-rac-α-T, Mean ± SD (HepG2 cells [3]; HepG2, 111 genes) | Overall biopotency factor (mean of all 215 potency ratios RRR-α-T to all-rac-α-T) (HepG2 cells [3]; HepG2, 215 genes) | Potency ratio Overall, Mean ± SD (HepG2 cells [3]; HepG2, 215 genes) | Number of genes dose-dependently regulated (HepG2 cells [3])
1 | no significant difference | significantly increased | no statistically significant differences | 18 ± 10.7 | 6.4 ± 6.8 | Cc1c(C)c2c(c(C)c1O)CC[C@@](C)(CCC[C@H](C)CCC[C@H](C)CCCC(C)C)O2 [RRR-α-T, (2R,4′R,8′R)-α-tocopherol] | 1.36 | 0.9 ± 0.6 | 1.2 ± 0.7 | 1.05 | 1.05 ± 0.7 | 215
2 | no significant difference | significantly increased | no statistically significant differences | 14 ± 9.1 | 6 ± 4.5 | Cc1c(C)c2c(c(C)c1O)CCC(C)(CCCC(C)CCCC(C)CCCC(C)C)O2 (racemic) [all-rac-α-T, all-rac-α-tocopherol] | – | – | – | – | – | 215
